These results are taken from patent US4889926A, “Method for the synthesis of (2"R)-4'-O-tetra-hydropyranyladriamycim using 14-chloro-daunomycin as an intermediate” (priority 1987, dated 1989).

≈ marks a conversion by molar mass, not a printed value. Read-outs that look alike come from different tables or passages of the source.

The test system of data set [1] is murine melanoma B16 cells. Briefly: Growth inhibition by MTT assay, B16. In kind it is cell-based. The note with it: Mus musculus, read-out: IC50 value (50% growth inhibitory concentration), B16. On the procedure:
(§1) Antitumor activities of 14-chlorodaunomycin against various experimental tumors, including murine leukemia P-388 cells, murine leukemia P-388 cells (resistant to adriamycin), murine melanoma B16 cells, human lung cancer PC14 cells and murine leukemia L-1210 cells, were tested and evaluated in vitro by the following procedure:
(§2) The tumor cells were cultivated in RPMI 1640 medium supplemented with 10% fetal calf serum, 10μM 2-hydroxyethyldisulfide and kanamycin at 50 μg/ml (the growth medium), under air containing 5% CO2 at 37° C.
(§3) The tumor cells were incubated at initial densities of 1.5×10^4 cells/ml with murine melanoma B16; 2×10^4 cells/ml with murine leukemia P388, P388/ADR and L-1210; and 2.5×10^4 cells/ml with human lung cancer PC14 cells in the growth medium further containing graded concentrations of each test compound, for 72 hours. The IC50 value, namely the 50% growth inhibitory concentration of the tested compound was evaluated by MTT assay method (see Mosmann, T; "J. Immunol. Methods", 65, 55-63 (1983).

Data set [2] deals with human lung cancer PC14 cells. Briefly: Growth inhibition by MTT assay, PC14. The class given is cell-based. The conditions noted are these: read-out: IC50 value (50% growth inhibitory concentration), PC14. As to the method:
as §1, §2, §3

The test system of data set [3] is murine leukemia L-1210 cells. Briefly: Growth inhibition by MTT assay, L-1210. In kind it is cell-based. The note with it: Mus musculus, read-out: IC50 value (50% growth inhibitory concentration), L-1210. On the procedure:
as §1, §2, §3
(In general: Formazan colour is commonly taken as a measure of viable cells.)

In data set [4] the test system is murine leukemia P-388 cells (resistant to adriamycin). The data set is described as follows: Growth inhibition by MTT assay, P-388 resistant to adriamycin. The note with it: Mus musculus, read-out: IC50 value (50% growth inhibitory concentration), P-388 resistant to adriamycin. In kind it is cell-based. As to the method: as §1, §2, §3
Data set [5] concerns murine leukemia P-388 cells. Briefly: Growth inhibition by MTT assay, P-388. The class given is cell-based. The note with it: Mus musculus, read-out: IC50 value (50% growth inhibitory concentration), P-388. As to the method: as §1, §2, §3
Data set [6] in a line: Storage stability in solid state. In kind it is physicochemical. The note with it: -10° C. The source says: In the above-mentioned known processes for the preparation of (2"R)-4'-O-THPADM of formula (A) in which daunomycin (DM) of formula (II) is used as the starting compound, and which are effected via the 14-bromodaunomycin of formula (V) as the intermediate product (namely the processes of the aforesaid Japanese patent application first publication "Kokai" Nos. 104,299/80 and 156,300/81), there are formed great amounts of the undesired by-products in the tetrahydropyranylation step so that the intended final compound can be obtained only in a low yield with these prior art processes. The intermediate compound, 14-bromodaunomycin is so unstable that even when it has been stored in its solid state at -10° C. for about 1 week, 14-bromodaunomycin can remain only in such an amount which is as little as about two-thirds of its initial amount before its storage, due to that the amino sugar moiety bonded to the 7-position can be cleaved to bring about the degradation of 14-bromodaunomycin.

The test system of another data set is tumor. The note with it: Japanese patent publication No. 47194/81 and U.S. Pat. No. 4,303,785; cited from earlier work.
Data set [7] in a line: Stability in solution in an organic solvent. In kind it is physicochemical.
Data set [8] has as its system various kinds of experimental tumors. The data set is described as follows: Antitumor activity against various experimental tumors (in words). The class given is cell-based. As to the method: Antitumor activities of 14-chlorodaunomycin against various experimental tumors, including murine leukemia P-388 cells, murine leukemia P-388 cells (resistant to adriamycin), murine melanoma B16 cells, human lung cancer PC14 cells and murine leukemia L-1210 cells, were tested and evaluated in vitro by the following procedure: […]

[9] abbreviates: B16, 72 hours, MTT assay, 1.5×10^4 cells/ml.
The mark [10] stands for this setting: PC-14, PC14, 72 hours, MTT assay, 2.5×10^4 cells/ml.
Where [11] appears, read: L1210, L-1210, 72 hours, MTT assay, 2×10^4 cells/ml.
Setting [12] is: P388/ADR, 72 hours, MTT assay, 2×10^4 cells/ml.
Where [13] appears, read: P388, P-388, 72 hours, MTT assay, 2×10^4 cells/ml.

`COc1cccc2c1C(=O)c1c(O)c3c(c(O)c1C2=O)C[C@@](O)(C(C)=O)C[C@@H]3O[C@H]1C[C@H](N)[C@H](O)[C@H](C)O1` [Daunomycin, daunomycin]: the IC50 worked out at 0.0449 µg/mL (≈ 0.0851 µM) in data set [1] (setting [9]); 0.237 µg/mL (≈ 0.449 µM) in data set [2] (setting [10]); 0.0655 µg/mL (≈ 0.124 µM) in data set [3] (setting [11]); 0.668 µg/mL (≈ 1.27 µM) in data set [4] (setting [12]); 0.0163 µg/mL (≈ 0.0309 µM) in data set [5] (setting [13]).
The like results for `COc1cccc2c1C(=O)c1c(O)c3c(c(O)c1C2=O)C[C@@](O)(C(=O)CO)C[C@@H]3O[C@H]1C[C@H](N)[C@H](O)[C@H](C)O1` [Adriamycin, adriamycin] were, in that order, 0.101 µg/mL (≈ 0.186 µM), 0.765 µg/mL (≈ 1.41 µM), 0.154 µg/mL (≈ 0.283 µM), 2.06 µg/mL (≈ 3.79 µM) and 0.033 µg/mL (≈ 0.0607 µM).
Turning to `COc1cccc2c1C(=O)c1c(O)c3c(c(O)c1C2=O)C[C@@](O)(C(=O)CBr)C[C@@H]3O[C@H]1C[C@H](N)[C@H](O)[C@H](C)O1` [14-bromodaunomycin], the “amount remaining of its initial amount after storage” value in data set [6] (14-bromodaunomycin (comparator intermediate), solid state, about 1 week) was “about two-thirds”.
As to `COc1cccc2c1C(=O)c1c(O)c3c(c(O)c1C2=O)C[C@@](O)(C(=O)CO)C[C@@H]3O[C@H]1C[C@H](N)[C@H](O[C@@H]2CCCCO2)[C@H](C)O1` [4'-O-tetrahydropyranyladriamycin], in the data set with tumor, the antitumor activity result is recorded as “has antitumor activity”.
`COc1cccc2c1C(=O)c1c(O)c3c(c(O)c1C2=O)C[C@@](O)(C(=O)CCl)C[C@@H]3O[C@H]1C[C@H](N)[C@H](O)[C@H](C)O1` [14-chlorodaunomycin]: the IC50 in [1] (B16, 72 h) is 0.093 µg/mL (≈ 0.165 µM); in [2] (PC-14, 72 h), 0.96 µg/mL (≈ 1.71 µM); in data set [3] (L1210, 72 h) it was 0.268 µg/mL (≈ 0.477 µM); in data set [4] (P388, 72 h), 0.552 µg/mL (≈ 0.982 µM); in [5] (P388, 72 h) it was 0.0963 µg/mL (≈ 0.171 µM). Besides, the “decomposition rate in solution compared with 14-bromodaunomycin” value in [7] (organic solvent containing some water and an acidic compound, same conditions) was “considerably smaller than that of 14-bromodaunomycin”. Besides, the “stability in solution in an organic solvent” value in data set [7] (solution in an organic solvent) is given as “somewhat stable”. Besides, the antitumor activity entry in [8] is recorded as “remarkable antitumor activity”. The decomposition on storage entry in data set [6] (solid form, 1 week or so) is “no substantial decomposition”.
